How the values were obtained:
FGF-stimulated HUVEC = FGF-stimulated HUVEC proliferation assay (BrdU); type: cell-based; details: Homo sapiens, BrdU labeling, FGF 5 ng per mL, 24 hour exposure, read-out: Antiproliferative Activity FGF-stimulated HUVEC Assay IC50
Method: (§1) The antiproliferative activity of test compounds of this invention in cell-based assays was evaluated by BrdU assay using the BrdU kit (Roche Biochemicals 1-647-229). Human umbilical vein endothelial cells (HUVEC, Clonetics CC-2519) were cultured in EGM-2 (Clonetics CC-3162) medium and seeded at 10000 cells per well in a volume of 200 μL of EGM-2 (Clonetics CC-3162) media in a 96-well flat bottom plates (Costar 3595) overnight. After 24 hours of growth at 37° C. with 5% CO2, the incubation media was removed slowly by aspiration, and the content of each well was washed with 300 μL pre-warmed EBM-2 (Clonetics CC-3156) containing 50 μg per mL of gentamycin and 50 ng per mL of amphotercin-B (Clonetics CC-4083). Subsequently, the remaining media was again aspirated and replaced with 160 μL per well of serum starvation media (EBM-2 supplemented with 1% heat inactivated FBS (Clonetics CC-4102), 50 μg per mL gentamycin and 50 ng per mL of amphotercin-B (Clonetics CC-4083), 10 units per mL of Wyeth-Ayerst heparin (NDC0641-0391-25), and 2 mM L-glutamine (GIBCO 25030-081). After serum starving the cells for 24 hours, 20 μL of test compound at 10× test concentration in serum starvation medium with 2.5% DMSO was added to the appropriate wells. The control wells contained 20 μL of serum starvation medium with 2.5% DMSO. Plates were returned to the incubator for 2 hours. After pre-incubating the cells with the test compounds for 2 hours, 20 μL of growth factors at 10X assay concentration diluted in serum starvation media, FGF at 50 ng per mL, or VEGF (R&D systems 293-VE) at 200 ng per mL were added. The final concentration of FGF in the assay was 5 ng per mL and the final concentration of VEGF in the assays was 20 ng per mL. The growth factor free control wells had 20 μL per well of serum starvation media with the same amount of BSA as the wells with growth factors. The plates were returned to the incubator for an additional 22 hours.
(§2) After 24 hour exposure to the test compounds, the cells were labeled with BrdU (Roche Biochemicals 1-647-229), by adding 20 μL per well of BrdU labeling reagent that has been diluted (1:100) in serum starvation medium. The plates were then returned to the incubator for 4 hours. The labeling medium was removed by draining the medium onto paper towels. […] The plates were read at 450 nm with reference wavelength of 650 nm. The percent inhibition for each test compound was calculated by subtracting the absorbency of the blank (no cells) wells from all wells, then subtracting the division of the average absorbency of each test duplicate by the average of the controls from 1. […] The IC50 is determined from the linear regression of a plot of the logarithm of the concentration versus percent inhibition.

Cyclin E/CDK2 = biological target: T1, Cyclin E/CDK2 (Homo sapiens, UniProt P24941); assay: CDK2 Flash Plate Assay (Rb phosphorylation, 33P-ATP); type: biochemical
T1 construct: made in house; host or cells: insect cells
Method: To determine inhibition of CDK2 activity, purified recombinant retinoblastoma (Rb) protein was coated on 96 well FlashPlates (New England Nuclear, Boston, Mass.). […] Recombinant active human Cyclin E/CDK2 complexes were partially purified from extracts of insect cells. […] Plates were incubated for 25 minutes at room temperature with shaking, then washed and counted in the Topcount scintillation counter (Packard Instrument Co., Downers Grove, Ill.). Dilutions of test compounds were tested in duplicate in each assay. The percent inhibition of Rb phosphorylation, which is a measure of the inhibition of CDK2 activity, was determined according to the following formula:
[formula] where “test compound” refers to the average counts per minute of the test duplicates, “nonspecific” refers to the average counts per minute when no Cyclin E/CDK2 was added, and “total” refers to the average counts per minute when no compound was added.

H460a = H460a cell-based MTT proliferation assay; details: 120 h, 5 days post addition of test compound, read-out: Antiproliferative Activity H460a Assay IC90
Method: The H460a cell line was purchased from (ATCC; Rockville, Md.) and was grown in the medium recommended by ATCC. For analysis of the effect of the test compounds on growth of these cells, the cells were plated at 150 cells per well in a 96-well tissue culture plate, and were incubated overnight at 37° C. with 5% CO2. The next day, the test compounds were dissolved in 100% dimethyl sulfoxide (DMSO) to yield a 10 mM stock solution. Each compound was diluted with sterile medium to 1 mM in a sufficient quantity to yield a final concentration of 120 μM. The compounds were then serially diluted in medium with 1.2% DMSO. One-fourth final volume of the diluted compounds was transferred to 96 well plates. Test compounds were assayed in duplicate. […] The plates were returned to the incubator, and 5 days post addition of test compound, were analyzed as described below. […] Absorbencies were read in a microtiter plate reader (Molecular Dynamics) at a wavelength of 570 nm with a 650 nm reference. Percent inhibition was calculated by subtracting the absorbance of the blank (no cell) wells from all wells, then subtracting the division of the average absorbance of each test duplicate by the average of the controls from 1.00. Inhibitory concentrations (IC50) were determined from the linear regression of a plot of the logarithm of the concentration versus the percent inhibition.

FGFR = biological target: T2, FGFR; assay: FGFR kinase HTRF assay; type: biochemical; details: 1.5 nM activated FGFR, 10 μM ATP; read-out: Inhibition of FGFR IC50
T2 construct: fused on or other part: GST tag
Method: (§3) To determine inhibition of KDR and FGFR, kinase assays were conducted using an HTRF (Homogeneous Time Resolved Fluorescence) assay. This assay is described in A. J. Kolb et. al., Drug Discovery Today, 1998, 3(7), p 333.
FGFR activity assays were carried out as described above for the KDR activity assay with the following differences. GST-tagged FGFR enzyme was activated at room temperature for 1 hour in the following activation buffer: 100 mM HEPES, pH 7.4, 50 mM NaCl, 20 mM MgCl2, and 4 mM ATP. […] The rest of the assay was performed in the same manner as KDR assay.
(§4) Compound IC50 values were determined from duplicate sets of data, and calculated by using Excel and fitting data to equation Y=[(a−b)/{1+(X/c)^d]+b, where a and b are enzyme activity in the presence of no test inhibitor compound and an infinite amount of inhibitor test compound, respectively, c is the IC50 and d is the hill constant of the compound response. The IC50 value is the concentration of test compound that reduces by 50% the enzyme activity under the test conditions described.

KDR = biological target: T3, KDR (Homo sapiens, UniProt P35968); assay: KDR kinase HTRF assay; type: biochemical; details: 1 nM activated KDR, 0.3 mM ATP, 37° C. for 30 minutes; read-out: Inhibition of KDR IC50
T3 construct: EEE tag
Method: as §3
Prior to kinase reaction, recombinant EEE-tagged KDR was activated in the presence of activation buffer (50 mM HEPES, pH 7.4, 1 mM DTT, 10% glycerol, 150 mM NaCl, 0.1 mM EDTA, 26 mM MgCl2, and 4 mM ATP). The enzyme was incubated at 4° C. for 1 hour.
Kinase activity assays were performed in 96-well polypropylene plates (Falcon) with a total volume of 90 μL in each well. Each well contained 1 μM KDR substrate (Biotin-[…]), 1 nM activated KDR, and a test compound with one of 8 assay concentrations ranging from […] to […] (1:5 serial dilution). […] The reaction was incubated at 37° C. for 30 minutes. To stop the KDR reaction, 72 μL of reaction mixture was transferred into a STOP plate containing 18 μL of revelation buffer (20 mM EDTA, 50 mM HEPES, pH 7.4, 0.02% BSA, 10 nM Eu-labelled anti-pY antibody (final conc. 2 nM), and 100 nM streptavidin (final conc. 20 nM)). After mixing, 35 μL of solution was transferred into duplicate wells of a 384-well black plate (Costar), and read at 615/665 nm on a Wallac Victor 5 reader.
as §4

HCT-116 = HCT-116 (colon) cell-based MTT proliferation assay; details: Homo sapiens, HCT-116, 96 h, 4 days post addition of test compound, read-out: Antiproliferative Activity HCT 116 (colon) Assay IC50
Method: The estrogen receptor negative epithelial breast carcinoma line (MDA-MB-435) was purchased from American Type Cell Culture Collection (ATCC; Rockville, Md.) and was grown in the medium recommended by ATCC. For analysis of the effect of the test compounds on growth of these cells, the cells were plated at 2000 cells per well in a 96-well tissue culture plate, and were incubated overnight at 37° C. with 5% CO2. The next day, the test compounds were dissolved in 100% dimethyl sulfoxide (DMSO) to yield a 10 mM stock solution. Each compound was diluted with sterile medium to 1 mM in a sufficient quantity to yield a final concentration of 120 μM. The compounds were then serially diluted in medium with 1.2% DMSO. One-fourth final volume of the diluted compounds was transferred to 96 well plates. Test compounds were assayed in duplicate. DMSO was added to a row of “control cells” such that the final concentration of DMSO in each well was 0.3%. Wells to which no cells were added served as the “blank.” Wells to which no inhibitor was added served as “no inhibitor control”. The plates were returned to the incubator, and 5 days post addition of test compound, were analyzed as described below.
3-(4,5-Dimethylthiazole-2-yl)-2,5-diphenyl-2H-tetrazolium bromide (thiazolyl blue; MTT) was added to each well to yield a final concentration of 1 mg/mL. The plates were then incubated at 37° C. for 3 hours. The plates were centrifuged at 1000 rpm for 5 minutes prior to aspiration of the MTT-containing medium. The MTT-containing medium was then removed and 100 μL 100% ethanol was added to each well to dissolve the resulting formazan metabolite. To ensure complete dissolution, plates were shaken for 15 minutes at room temperature. Absorbencies were read in a microtiter plate reader (Molecular Dynamics) at a wavelength of 570 nm with a 650 nm reference. Percent inhibition was calculated by subtracting the absorbance of the blank (no cell) wells from all wells, then subtracting the division of the average absorbance of each test duplicate by the average of the controls from 1.00. Inhibitory concentrations (IC50) were determined from the linear regression of a plot of the logarithm of the concentration versus the percent inhibition.
The colon adenocarcinoma line SW480 and the colon carcinoma line HCT-116 also were obtained from the ATCC and were tested according to the same protocol provided above for MDA-MB-435 cell based assay with the following modifications. Cell line SW480 was plated at 1000 cells per well and analyzed at 6 days post addition of the test compound. Cell line HCT-116 was plated at 1000 cells per well and analyzed at 4 days post addition of test compound.

VEGF-stimulated HUVEC = VEGF-stimulated HUVEC proliferation assay (BrdU); type: cell-based; details: Homo sapiens, BrdU labeling, VEGF 20 ng per mL, 24 hour exposure, read-out: Antiproliferative Activity VEGF-stimulated HUVEC Assay IC50
Method: as §1, §2

T3 sequence (P35968 20-1356, species assumed): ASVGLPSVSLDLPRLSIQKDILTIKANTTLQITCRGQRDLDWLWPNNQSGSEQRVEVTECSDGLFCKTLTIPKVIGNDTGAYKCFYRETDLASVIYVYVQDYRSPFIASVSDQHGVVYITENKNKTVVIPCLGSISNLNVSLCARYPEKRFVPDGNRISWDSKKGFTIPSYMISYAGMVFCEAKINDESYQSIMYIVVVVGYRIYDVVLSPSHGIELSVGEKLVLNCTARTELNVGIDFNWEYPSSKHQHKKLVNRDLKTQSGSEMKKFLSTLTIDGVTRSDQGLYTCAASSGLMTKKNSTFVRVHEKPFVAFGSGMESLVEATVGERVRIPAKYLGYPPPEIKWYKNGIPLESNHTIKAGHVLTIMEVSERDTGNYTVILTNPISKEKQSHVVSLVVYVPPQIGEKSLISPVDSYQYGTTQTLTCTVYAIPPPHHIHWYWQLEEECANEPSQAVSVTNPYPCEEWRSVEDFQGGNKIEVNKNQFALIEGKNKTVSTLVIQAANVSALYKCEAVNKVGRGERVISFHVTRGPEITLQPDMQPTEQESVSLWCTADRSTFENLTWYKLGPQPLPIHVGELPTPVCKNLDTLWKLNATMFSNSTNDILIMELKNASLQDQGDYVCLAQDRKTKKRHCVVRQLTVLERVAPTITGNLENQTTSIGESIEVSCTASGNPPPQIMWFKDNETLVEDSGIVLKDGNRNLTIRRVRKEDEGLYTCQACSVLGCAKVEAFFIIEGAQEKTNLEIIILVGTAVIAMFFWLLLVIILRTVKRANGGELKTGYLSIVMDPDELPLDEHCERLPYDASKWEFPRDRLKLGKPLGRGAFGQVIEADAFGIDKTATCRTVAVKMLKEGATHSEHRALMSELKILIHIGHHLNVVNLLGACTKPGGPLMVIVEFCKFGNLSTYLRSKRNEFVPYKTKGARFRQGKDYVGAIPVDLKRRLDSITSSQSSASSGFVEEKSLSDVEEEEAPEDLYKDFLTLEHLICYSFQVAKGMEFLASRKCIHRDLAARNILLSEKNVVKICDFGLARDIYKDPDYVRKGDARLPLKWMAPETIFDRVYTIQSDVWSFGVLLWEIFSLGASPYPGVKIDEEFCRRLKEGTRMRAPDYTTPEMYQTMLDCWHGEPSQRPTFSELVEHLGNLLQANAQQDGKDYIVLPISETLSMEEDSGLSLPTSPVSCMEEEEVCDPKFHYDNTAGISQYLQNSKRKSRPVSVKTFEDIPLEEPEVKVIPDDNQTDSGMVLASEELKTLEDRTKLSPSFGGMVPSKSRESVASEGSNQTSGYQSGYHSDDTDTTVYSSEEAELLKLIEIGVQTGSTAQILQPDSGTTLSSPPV

SMILES | IC50 (FGF-stimulated HUVEC) | IC50 (Cyclin E/CDK2) | IC50 (VEGF-stimulated HUVEC) | also measured
COc1cc2c(cc1C#N)C(c1ccccc1Cl)=Nc1c(n[nH]c1C)N2 [IVb, 5-(2-chlorophenyl)-7-cyano-1,2-dihydro-8-methoxy-3-methyl-pyrazolo[3,4-b][1,4]benzodiazepine] | 5 nM | 184 nM |  | IC90 (H460a): 118 nM
COc1cc2c(cc1C(N)=O)C(c1ccccc1Cl)=Nc1c(n[nH]c1C)N2 [IVc] | < 1 nM |  |  | IC50 (FGFR): 32 nM; IC50 (KDR): 22 nM
COCCOc1cc2c(cc1F)C(c1ccccc1Cl)=Nc1c(n[nH]c1C)N2 [IVf, 5-(2-chlorophenyl)-1,2-dihydro-7-fluoro-8-methoxyethoxy-3-methyl-pyrazolo[3,4-b][1,4]benzodiazepine] |  | 395 nM |  | IC50 (HCT-116): 498 nM
Cc1[nH]nc2c1N=C(c1ccccc1Cl)c1cc(F)c(OC(C)C)cc1N2 [IVh, 5-(2-chlorophenyl)-1,2-dihydro-7-fluoro-8-(1-methylethoxy)-3-methyl-pyrazolo[3,4-b][1,4]benzodiazepine] |  | 247 nM |  | 
Cc1cc2c(cc1C)C(c1ccccc1Cl)=Nc1c(n[nH]c1C)N2 [IVw, 5-(2-chlorophenyl)-1,2-dihydro-3,7,8-trimethyl-pyrazolo[3,4-b][1,4]benzodiazepine] | 36 nM |  | 22 nM | IC50 (FGFR): 38 nM
COc1cc2c(cc1Cl)Nc1n[nH]c(C)c1N=C2c1ccccc1Cl [IVy, 8-chloro-5-(2-chlorophenyl)-1,2-dihydro-7-methoxy-3-methyl-pyrazolo[3,4-b][1,4]benzodiazepine] |  |  | 174 nM | 
COc1cc2c(cc1C)C(c1ccccc1Cl)=Nc1c(n[nH]c1C)N2 [IVz, 5-(2-chlorophenyl)-1,2-dihydro-3,7-dimethyl-8-methoxy-pyrazolo[3,4-b][1,4]benzodiazepine] |  |  | 12 nM | 

— patent publication US7524840B2, “7,8-disubstituted pyrazolobenzodiazepines” (Hoffmann-La Roche Inc., priority 2004, dated 2009)
